This passage reports Ki results from patent publication US20110207729A1, “BICYCLIC ACYLGUANIDINE DERIVATIVE” (ASTELLAS PHARMA INC., priority 2007, published 2011).

T1 sequence (P47898 whole entry): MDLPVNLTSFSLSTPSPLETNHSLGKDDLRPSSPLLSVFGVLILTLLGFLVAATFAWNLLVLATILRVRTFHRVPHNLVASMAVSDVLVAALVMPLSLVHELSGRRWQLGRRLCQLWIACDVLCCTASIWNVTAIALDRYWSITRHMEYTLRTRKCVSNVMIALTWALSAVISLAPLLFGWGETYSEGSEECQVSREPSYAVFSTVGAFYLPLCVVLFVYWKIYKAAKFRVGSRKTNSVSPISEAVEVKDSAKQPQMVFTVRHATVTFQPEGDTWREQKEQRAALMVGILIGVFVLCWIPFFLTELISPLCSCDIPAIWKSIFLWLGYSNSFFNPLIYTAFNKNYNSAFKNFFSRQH

This test has as its target T1, human 5-HT5A receptor (Homo sapiens, UniProt P47898).
T1 construct: expressed in transfected cells; membrane preparation
Nature of the test: Test on a human 5-HT5A receptor binding inhibition ([3H]5-CT). The following applies: membrane from HEK293 cells expressing human 5-HT5A receptor; Ki calculated from IC50 and Kd 4.95 nM. As for the experimental part:
Acquisition of HEK293 cells for forced expressions of a human 5-HT5A receptor
The ORF (open reading frame; protein coding region) of a human 5-HT5A receptor (Genbank AF498985) was cloned from a human hippocampus cDNA library, and then inserted into a pCR2.1 vector (Invitrogen), and Escherichia coli containing the plasmid was cultured in a large amount. Next, the full-length cDNA sequence of the human 5-HT5A receptor was analyzed, and recombined into a pcDNA3.1 vector (Invitrogen) as an expression vector and cultured in a large amount. HEK293 established cells (ATCC) derived from the human fetal kidney were seeded, the expression plasmid (1 μg) obtained above were added thereto with LIPOFECTAMINE 2000 (Invitrogen; 2 μl), the gene was transfected into HEK293 cells, and the expression cells were screened with a drug-resistant marker, Geneticin (G418 sulfate 500 μg/ml; Kanto Chemical Co., Inc.). Thus prepared recombinant cells which express the gene were cultured in a medium containing D-MEM (Dulbecco's modified eagle medium, Sigma), 10% FCS (Fetal calf serum: fetal bovine serum), 1% Pc./Sm (Penicillin/Streptomycin, Invitrogen), and 500 μg/ml G418 for 3 days. These experimental operations follow an manual for gene operation experiment and an instruction appended in a reagent, and the like, such as a known method (Sambrook, J. et al, Molecular Cloning—A Laboratory Manual”, Cold Spring Harabor laboratory, NY, 1989).
(1) Preparation of a Membrane from HEK293 Cells for Forced Expressions of a Human 5-HT5A Receptor
HEK293 cells for forced expressions of a human 5-HT5A receptor were cultured in a F500 plate, and scraped with a scraper. After centrifugation, a precipitate was collected, and an incubation buffer (50 mM Tris (HCl) (pH 7.4), 10 mM MgSO4, and 0.5 mM EDTA (ethylenediamine tetraacetic acid)) were added thereto. After homogenization, it was further centrifuged, and the precipitate was added with the incubation buffer, followed by thoroughly suspending. This operation was repeated, and a protein concentration was measured, thereby completing the preparation of a membrane.
(2) Test on a Human 5-HT5A Receptor Binding Inhibition
A solution of a compound to be tested and 100 μM 5-CT (5-carboxamidetriptamine) in DMSO was added to a 96-well plate at 2 μl/well, and suspended in an incubation buffer, and a membrane from HEK293 cells for forced expressions of a human 5-HT5A receptor prepared at 200 μg/ml was added at 100 μl/well. After incubation at room temperature for 15 minutes, a [^3H]5-CT solution (2 nM [^3H]5-CT, incubation buffer) was added thereto at 100 μl/well.
Separately, 100 μl of the solution was distributed into a liquid scintillation vial, and 2 ml of Aquasol II (registered trademark) was added thereto, followed by stirring. Then, a radioactivity was measured by a liquid scintillation counter. It was incubated at 37° C. for 60 minutes. The reaction mixture was sucked into 96-well GF/C filter plate that had been pre-treated with 0.2% polyethyleneimine, and washed six times with an ice-cooled, 50 mM Tris (pH 7.5) buffer. The GF/C filter plate was dried.
Microscint TMPS (registered trademark) was added thereto at 40 μl/well. A radioactivity remaining on the GF/C filter plate was measured by a top counter.
The [^3H]5-CT binding inhibiting activity by the compound to be tested in each experiment was determined as an IC50 value with a radioactivity upon addition of DMSO alone being 0% inhibition, and a radioactivity upon addition of 1 μM 5-CT being 100% inhibition. Separately, a Ki value was calculated from the Kd value of the [^3H]5-CT determined from Scatchard analysis, by the following equation.
Ki=IC50(1+Concentration of ligands added/Kd(4.95 nM))
As for `NC(N)=NC(=O)c1ccc2c(c1)C(c1ccccc1OC(F)(F)F)=CCC2` [Example 2-98], the Ki was 30 to 300 nM.

`COc1ccc(C2=CCCc3ccc(C(=O)N=C(N)N)cc32)cc1C#N` [Example 2-78]: the Ki was 3 to 30 nM.

On to `CC(C)Oc1ccc(C2=CCCc3ccc(C(=O)N=C(N)N)cc32)cc1` [Example 2-88], for which the Ki was 30 to 300 nM.

`N#Cc1ccccc1-c1csc2ccc(C(=O)N=C(N)N)cc12` [Example 3-38]: the Ki is 3 to 30 nM.

For `COc1cc(F)c(C2=C(C)CCc3ccc(C(=O)N=C(N)N)cc32)c(F)c1` [Example 2-178], the Ki is 0.3 to 3 nM.

`Cc1ccc(C2=CCSc3ccc(C(=O)N=C(N)N)cc32)c(F)c1` [Example 3-15]: the Ki is 3 to 30 nM.

For the compound `NC(N)=NC(=O)c1ccc2c(c1)C(c1ccccc1)=CCCC2` [Example 3-03], the Ki was 30 to 300 nM.

`NC(N)=NC(=O)c1ccc2c(c1)C(c1ccccc1[N+](=O)[O-])=CCC2` [Example 2-46]: the Ki is 3 to 30 nM.

`Cn1cc(C2=CCCc3ccc(C(=O)N=C(N)N)cc32)cn1` [Example 2-77]: the Ki is 30 to 300 nM.

On to `N#CCc1ccccc1C1=CCCc2ccc(C(=O)N=C(N)N)cc21` [Example 2-114], for which the Ki is 30 to 300 nM.

With `NC(N)=NC(=O)c1ccc2scc(-c3ccc(F)cc3)c2c1` [Example 3-25], the Ki is 0.3 to 3 nM.

On to `NC(N)=NC(=O)c1ccc2c(c1)C(c1ccccc1F)=CCC2` [Example 2-09], for which the Ki was 0.3 to 3 nM.

As to `NC(N)=NC(=O)c1ccc2c(c1)C(c1c(F)cc(F)cc1F)=CC1(CCCC1)O2` [Example 1-121], the Ki was 3 to 30 nM.

Consider `NC(N)=NC(=O)c1ccc2c(c1)C(c1ccccc1Oc1ccccc1)=CCC2` [Example 2-33], for which the Ki is 30 to 300 nM.

On to `N#Cc1ccc(C2=C(F)CCc3ccc(C(=O)N=C(N)N)cc32)cc1` [Example 2-91], for which the Ki is 0.3 to 3 nM.

In the case of `CC1=C(c2ccc(C#N)cc2)c2cc(C(=O)N=C(N)N)ccc2CC1` [Example 2-59], the Ki was 0.3 to 3 nM.

With `CC1=C(c2ccc(Cl)cc2Cl)c2cc(C(=O)N=C(N)N)ccc2CC1` [Example 2-144], the Ki was 0.3 to 3 nM.

On to `NC(N)=NC(=O)c1ccc2c(c1)C(c1c(F)cc(F)cc1F)=CCCO2` [Example 3-12], for which the Ki is 0.3 to 3 nM.

As for `COc1ccccc1-c1c(C#N)sc2ccc(C(=O)N=C(N)N)cc12` [Example 3-39], the inhibition constant (Ki) is 3 to 30 nM.

For the compound `NC(N)=NC(=O)c1ccc2scc(-c3ccc(F)cc3F)c2c1` [Example 3-30], the Ki was 0.3 to 3 nM.

Take `Cn1cc(C2=CCOc3ccc(C(=O)N=C(N)N)cc32)cn1` [Example 1-66]: the Ki was 30 to 300 nM.

In the case of `NC(N)=NC(=O)c1ccc2c(c1)C(c1ccsc1)=CCC2` [Example 2-19], the Ki was 0.3 to 3 nM.

On to `NC(N)=NC(=O)c1ccc2c(c1)C(c1c(F)cccc1F)=CCC2` [Example 2-105], for which the Ki is 0.3 to 3 nM.

Turning to `Cc1cc(Cl)ccc1C1=CCCc2ccc(C(=O)N=C(N)N)cc21` [Example 2-135], the Ki is 0.3 to 3 nM.

Consider `COc1ccc(C2=CCCc3ccc(C(=O)N=C(N)N)cc32)c(OC)n1` [Example 2-173], for which the Ki was 3 to 30 nM.

`NC(N)=NC(=O)c1ccc2scc(-c3cccnc3)c2c1` [Example 3-32]: the Ki is 30 to 300 nM.

Regarding `CS(=O)(=O)c1ccc(C2=CCCc3ccc(C(=O)N=C(N)N)cc32)cc1` [Example 2-97], the Ki is 30 to 300 nM.

With `NC(N)=NC(=O)c1ccc2c(c1)C(c1c(F)cccc1Cl)=CCO2` [Example 1-96], the Ki is 0.3 to 3 nM.

As for `NC(N)=NC(=O)c1ccc2c(c1)C(c1ccncc1)=CCC2` [Example 2-49], the Ki was 3 to 30 nM.

As to `COc1ccccc1C1=C(C)CCc2ccc(C(=O)N=C(N)N)cc21` [Example 2-58], the Ki is 3 to 30 nM.

For `CC1=C(c2ccc(C)cc2C)c2cc(C(=O)N=C(N)N)ccc2CC1` [Example 2-164], the Ki was 0.3 to 3 nM.

In the case of `NC(N)=NC(=O)c1ccc2c(c1)C(c1c(Cl)cncc1Cl)=CCC2` [Example 2-190], the Ki is 3 to 30 nM.

Turning to `N#Cc1ccccc1C1=CCSc2ccc(C(=O)N=C(N)N)cc21` [Example 3-19], the Ki is 3 to 30 nM.

`Cc1cc(C)c(C2=CCCc3ccc(C(=O)N=C(N)N)cc32)c(C)c1` [Example 2-69]: the Ki is 3 to 30 nM.

`COc1ccc(-c2csc3ccc(C(=O)N=C(N)N)cc23)cc1` [Example 3-24]: the Ki was 3 to 30 nM.

For the compound `NC(N)=NC(=O)c1ccc2c(c1)C(c1cccc(Cl)c1F)=CCO2` [Example 1-81], the Ki is 0.3 to 3 nM.

Turning to `N#Cc1ccccc1C1=CCOc2ccc(C(=O)N=C(N)N)cc21` [Example 1-21], the Ki was 3 to 30 nM.

With `NC(N)=NC(=O)c1ccc2c(c1)C(c1c(F)ccc(F)c1F)=CCC2` [Example 2-99], the Ki is 0.3 to 3 nM.

With `NC(N)=NC(=O)c1ccc2c(c1)C(c1nccs1)=CCC2` [Example 2-93], the Ki was 30 to 300 nM.

`NC(N)=NC(=O)c1ccc2c(c1)C(c1ccnc(Cl)c1)=CCC2` [Example 2-174]: the Ki is 3 to 30 nM.

Take `CC1C=C(c2cccnc2)c2cc(C(=O)N=C(N)N)ccc2O1` (stereo not drawn) [Example 1-128]: the Ki was 30 to 300 nM.

`COc1cccc(C#N)c1C1=CC(C)Oc2ccc(C(=O)N=C(N)N)cc21` (stereo not drawn) [Example 1-165]: the Ki is 30 to 300 nM.

For the compound `COc1ccc(C2=C(C)CCc3ccc(C(=O)N=C(N)N)cc32)c(C)c1` [Example 2-170], the Ki is 0.3 to 3 nM.

As for `NC(N)=NC(=O)c1ccc2c(c1)C(c1ccc(F)c(Cl)c1)=CCO2` [Example 1-80], the Ki is 3 to 30 nM.

For the compound `N/C(=N\C(=O)c1ccc2c(c1)C(c1c(F)cccc1F)=CCO2)NCC1CC1` [Example 1-76], the Ki is 3 to 30 nM.

As for `NC(N)=NC(=O)c1ccc2c(c1)C(c1c(F)cc(F)cc1F)CCO2` (stereo not drawn) [Example 3-31], the Ki was 3 to 30 nM.

For the compound `COc1cc(F)c(F)cc1C1=CCCc2ccc(C(=O)N=C(N)N)cc21` [Example 2-100], the Ki was 3 to 30 nM.

On to `CN(C)Cc1cccc(C2=CCCc3ccc(C(=O)N=C(N)N)cc32)c1` [Example 2-38], for which the Ki was 3 to 30 nM.

Regarding `NC(N)=NC(=O)c1ccc2c(c1)C(c1cncs1)=CCC2` [Example 2-157], the Ki is 3 to 30 nM.

For `CC1(C)CC=C(c2ccccc2)c2cc(C(=O)N=C(N)N)ccc21` [Example 2-80], the Ki was 30 to 300 nM.

As to `NC(N)=NC(=O)c1ccc2c(c1)C(c1ccc(F)cc1F)=CCC2` [Example 2-101], the Ki was 0.3 to 3 nM.

`CC1=C(c2ccc(C)nc2)c2cc(C(=O)N=C(N)N)ccc2CC1` [Example 2-141]: the Ki was 3 to 30 nM.

`COc1cccc(C#N)c1C1=CCCc2ccc(C(=O)N=C(N)N)cc21` [Example 2-66]: the Ki is 30 to 300 nM.

`NC(N)=NC(=O)c1ccc2c(c1)C(c1cc(Cl)c(F)cc1F)=CCC2` [Example 2-136]: the Ki was 3 to 30 nM.

For the compound `CC1(C)C=C(c2ccccc2)c2cc(C(=O)N=C(N)N)ccc2O1` [Example 1-04], the inhibition constant (Ki) was 30 to 300 nM.

Turning to `NC(N)=NC(=O)c1ccc2c(c1)C(c1cccc(F)c1Cl)=CCC2` [Example 2-168], the Ki was 0.3 to 3 nM.

For `NC(N)=NC(=O)c1ccc2c(c1)C(c1cccc(O)c1)=CCC2` [Example 2-51], the Ki is 0.3 to 3 nM.

Regarding `NC(N)=NC(=O)c1ccc2c(c1)C(c1ccc(Cl)cc1F)=CCC2` [Example 2-67], the Ki is 0.3 to 3 nM.

On to `N#Cc1ccc(C2=CCCOc3ccc(C(=O)N=C(N)N)cc32)cc1` [Example 3-13], for which the Ki was 3 to 30 nM.

Regarding `CC1C=C(c2ccc(Cl)nc2Cl)c2cc(C(=O)N=C(N)N)ccc2O1` (stereo not drawn) [Example 1-147], the Ki is 30 to 300 nM.

For orientation: Ki means the equilibrium dissociation constant of an inhibitor or competing ligand from its target.
